# From patent publication US11718604B2, “4-amino-6-(1,3-benzodioxole)picolinates and their use as herbicides” (Dow AgroSciences LLC, priority 2018, dated 2023)
# What was measured:
# Type in all cases: in vivo
# [1] = system: VIOTR: wild violet (Viola tricolor); experiment: Post-emergent herbicidal test, wild violet; settings: post-emergence, 336 h, 14 days after application, read-out: Visual Growth Reduction (%) 14 Days After Application VIOTR
# Procedure: (§1) Post-Emergent Test: Seeds or nutlets of the desired test plant species were planted in Sun Gro Metro-Mix® 360 planting mixture, which typically has a pH of 6.0 to 6.8 and an organic matter content of about 30 percent, in plastic pots with a surface area of 64 square centimeters (cm^2). When required to ensure good germination and healthy plants, a fungicide treatment and/or other chemical or physical treatment was applied. The plants were grown for 7-21 d in a greenhouse with an approximate 15 h photoperiod which was maintained at about 23-29° C. during the day and 22-28° C. during the night. Nutrients and water were added on a regular basis and supplemental lighting was provided with overhead metal halide 1000-Watt lamps as necessary. The plants were employed for testing when they reached the first or second true leaf stage.
# (§2) A weighed amount, determined by the highest rate to be tested, of each test compound was placed in a 25 mL glass vial and was dissolved in 4 mL of a 97:3 v/v mixture of acetone and DMSO to obtain concentrated stock solutions. […] The concentrated stock solutions obtained were diluted with 20 mL of an aqueous mixture containing acetone, water, isopropyl alcohol, DMSO, Atplus 411F crop oil concentrate, and Triton® X-155 surfactant in a 48.5:39:10:1.5:1.0:0.02 v/v ratio to obtain spray solutions containing the highest application rates. Additional application rates were obtained by serial dilution of 12 mL of the high rate solution into a solution containing 2 mL of a 97:3 v/v mixture of acetone and DMSO and 10 mL of an aqueous mixture containing acetone, water, isopropyl alcohol, DMSO, Atplus 411F crop oil concentrate, and Triton X-155 surfactant in a 48.5:39:10:1.5:1.0:0.02 v/v ratio to obtain ½×, ¼×, ⅛× and 1/16× rates of the high rate. Compound requirements are based upon a 12 mL application volume at a rate of 187 liters per hectare (L/ha). Formulated compounds were applied to the plant material with an overhead Mandel track sprayer equipped with 8002E nozzles calibrated to deliver 187 L/ha over an application area of 0.503 square meters at a spray height of 18 inches (43 cm) above the average plant canopy height. Control plants were sprayed in the same manner with the solvent blank.
# (§3) The treated plants and control plants were placed in a greenhouse as described above and watered by subirrigation to prevent wash-off of the test compounds. After 14 d, the condition of the test plants as compared with that of the untreated plants was determined visually and scored on a scale of 0 to 100 percent where 0 corresponds to no injury and 100 corresponds to complete kill.
# [2] = system: SORVU: shattercane (Sorghum bicolor); experiment: Post-emergent herbicidal test, shattercane; settings: post-emergence, 336 h, 14 days after application, read-out: Visual Growth Reduction (%) 14 Days After Application SORVU
# Procedure: as §1, §2, §3
# [3] = system: BRSNN: oilseed rape, canola (Brassica napus); experiment: Post-emergent herbicidal test, oilseed rape; settings: post-emergence, 336 h, 14 days after application, read-out: Visual Growth Reduction (%) 14 Days After Application BRSNN
# Procedure: as §1, §2, §3
# [4] = system: EPHHL: wild poinsettia (Euphorbia heterophylla); experiment: Post-emergent herbicidal test, wild poinsettia; settings: post-emergence, 336 h, 14 days after application, read-out: Visual Growth Reduction (%) 14 Days After Application EPHHL
# Procedure: as §1, §2, §3
# [5] = system: IPOHE: ivyleaf morningglory (Ipomoea hederacea); experiment: Post-emergent herbicidal test, ivyleaf morningglory; settings: post-emergence, 336 h, 14 days after application, read-out: Visual Growth Reduction (%) 14 Days After Application IPOHE
# Procedure: as §1, §2, §3
# [6] = system: ABUTH: velvetleaf (Abutilon theophrasti); experiment: Post-emergent herbicidal test, velvetleaf; settings: post-emergence, 336 h, 14 days after application, read-out: Visual Growth Reduction (%) 14 Days After Application ABUTH
# Procedure: as §1, §2, §3
# [7] = system: ECHCG: barnyardgrass (Echinochloa crus-galli); experiment: Post-emergent herbicidal test, barnyardgrass; settings: post-emergence, 336 h, 14 days after application, read-out: Visual Growth Reduction (%) 14 Days After Application ECHCG
# Procedure: as §1, §2, §3
# [8] = system: SETFA: giant foxtail (Setaria faberi); experiment: Post-emergent herbicidal test, giant foxtail; settings: post-emergence, 336 h, 14 days after application, read-out: Visual Growth Reduction (%) 14 Days After Application SETFA
# Procedure: as §1, §2, §3
# [9] = system: CYPES: yellow nutsedge (Cyperus esculentus); experiment: Post-emergent herbicidal test, yellow nutsedge; settings: post-emergence, 336 h, 14 days after application, read-out: Visual Growth Reduction (%) 14 Days After Application CYPES
# Procedure: as §1, §2, §3
# [10] = system: DIGSA: large crabgrass (Digitaria sanguinalis); experiment: Post-emergent herbicidal test, large crabgrass; settings: post-emergence, 336 h, 14 days after application, read-out: Visual Growth Reduction (%) 14 Days After Application DIGSA
# Procedure: as §1, §2, §3
# [11] = system: CIRAR: Canada thistle (Cirsium arvense); experiment: Post-emergent herbicidal test, Canada thistle; settings: post-emergence, 336 h, 14 days after application, read-out: Visual Growth Reduction (%) 14 Days After Application CIRAR
# Procedure: as §1, §2, §3
smiles,measurement,setting,value
COC(=O)c1nc(-c2ccc(F)c3c2OC(F)(F)O3)c(F)c(N)c1Cl [Compound 7],pest or weed control at 17.5 g/ha,[1]; 17.5 g ai/ha,5%
same,pest or weed control at 35 g/ha,[1]; 35 g ai/ha,10%
same,pest or weed control at 70 g/ha,[1]; 70 g ai/ha,40%
same,pest or weed control at 140 g/ha,[1]; 140 g ai/ha,50%
same,pest or weed control at 17.5 g/ha,[2]; 17.5 g ai/ha,0%
same,pest or weed control at 35 g/ha,[2]; 35 g ai/ha,0%
same,pest or weed control at 70 g/ha,[2]; 70 g ai/ha,0%
same,pest or weed control at 140 g/ha,[2]; 140 g ai/ha,0%
same,pest or weed control at 17.5 g/ha,[3]; 17.5 g ai/ha,50%
same,pest or weed control at 35 g/ha,[3]; 35 g ai/ha,60%
same,pest or weed control at 70 g/ha,[3]; 70 g ai/ha,80%
same,pest or weed control at 140 g/ha,[3]; 140 g ai/ha,85%
same,pest or weed control at 17.5 g/ha,[4]; 17.5 g ai/ha,0%
same,pest or weed control at 35 g/ha,[4]; 35 g ai/ha,0%
same,pest or weed control at 70 g/ha,[4]; 70 g ai/ha,10%
same,pest or weed control at 140 g/ha,[4]; 140 g ai/ha,20%
same,pest or weed control at 17.5 g/ha,[5]; 17.5 g ai/ha,0%
same,pest or weed control at 35 g/ha,[5]; 35 g ai/ha,0%
same,pest or weed control at 70 g/ha,[5]; 70 g ai/ha,0%
same,pest or weed control at 140 g/ha,[5]; 140 g ai/ha,0%
same,pest or weed control at 17.5 g/ha,[6]; 17.5 g ai/ha,50%
same,pest or weed control at 35 g/ha,[6]; 35 g ai/ha,70%
same,pest or weed control at 70 g/ha,[6]; 70 g ai/ha,75%
same,pest or weed control at 140 g/ha,[6]; 140 g ai/ha,85%
same,pest or weed control at 17.5 g/ha,[7]; 17.5 g ai/ha,0%
same,pest or weed control at 35 g/ha,[7]; 35 g ai/ha,0%
same,pest or weed control at 70 g/ha,[7]; 70 g ai/ha,0%
same,pest or weed control at 140 g/ha,[7]; 140 g ai/ha,0%
same,pest or weed control at 17.5 g/ha,[8]; 17.5 g ai/ha,0%
same,pest or weed control at 35 g/ha,[8]; 35 g ai/ha,0%
same,pest or weed control at 70 g/ha,[8]; 70 g ai/ha,0%
same,pest or weed control at 140 g/ha,[8]; 140 g ai/ha,10%
same,pest or weed control at 17.5 g/ha,[9]; 17.5 g ai/ha,0%
same,pest or weed control at 35 g/ha,[9]; 35 g ai/ha,10%
same,pest or weed control at 70 g/ha,[9]; 70 g ai/ha,30%
same,pest or weed control at 140 g/ha,[9]; 140 g ai/ha,40%
same,pest or weed control at 17.5 g/ha,[10]; 17.5 g ai/ha,0%
same,pest or weed control at 35 g/ha,[10]; 35 g ai/ha,0%
same,pest or weed control at 70 g/ha,[10]; 70 g ai/ha,0%
same,pest or weed control at 140 g/ha,[10]; 140 g ai/ha,0%
same,pest or weed control at 17.5 g/ha,[11]; 17.5 g ai/ha,60%
same,pest or weed control at 35 g/ha,[11]; 35 g ai/ha,70%
same,pest or weed control at 70 g/ha,[11]; 70 g ai/ha,75%
same,pest or weed control at 140 g/ha,[11]; 140 g ai/ha,80%
